Data set [1] in a line: Stability in liver microsomes, monkey. It counts as in vitro ADME. As for the experimental part: (§1) Stability of Liver Microsomes
(§2) Formulation of a compound reservation solution: the test compound, diclofenac acid, testosterone and propafenone were weighted in appropriate amounts, and calibrated by adding about 1 mL of DMSO to provide a 10 mM reservation solution, then stored in a 4° C. refrigerator;
(§3) Formulation of a compound working solution: 10 μL of the reservation solution were added to 990 μL acetonitrile-water (1:1) to provide a middle solution having a concentration of 100 μM, and 120 μL of the middle solution is further diluted with 2880 μL PBS to provide a 4 μM working solution; […]
(§4) After being incubated for a certain period of time, an equivalent volume of cooled acetonitrile (4° C.) was added to terminate the reaction, and LC-MS/MS was used to determine the concentrations of the compound after being incubated in various liver microsomes for different time periods. With the incubation time as the horizontal ordinate and the natural logarithm of the percentages of the remained compound at each time point as the longitudinal coordinate, a diagram was plotted, wherein the slope was the velocity constant (Ke), and the half-life (T1/2) and clearance rate (CLliver) of the compound were calculated according to the following equation to evaluate the staiblity of the compound in the liver microsomes. […]

A short description of data set [2]: Stability in liver microsomes, rat. The class given is in vitro ADME. As for the experimental part:
as §1, §2, §3, §4
On the technique in general: Liver microsomes are vesicles of endoplasmic reticulum, rich in cytochrome P450 enzymes.

Data set [3] in a line: Stability in liver microsomes, dog. It counts as in vitro ADME. As for the experimental part:
as §1, §2, §3, §4

A further data set relates to Caco-2 cells. Put plainly: Caco-2 permeation experiment. The following applies: 2 μM. The class given is in vitro ADME. As for the experimental part:
(§5) Caco-2 Permeation Experiment
(§6) Culture medium: 10%FBS+1% unnecessary amino acid+90%DMEM (high glucose)
(§7) Permeation solution (pH 7.4): HBSS (Ca^+, Mg^+)+10 mM Hepes
(§8) Compound reservation solution: an amount of the test compound was weighted and added with a certain amount of DMSO to formulate a 10 mM reservation solution.
(§9) Cells were inoculated to Transwell cells in a quantity of 6*10^4/cm^2, and at the A side (top side), were added with 200 μL of the culture medium, and at the B side (base side), were added with 1000 μL of the culture medium. After the inoculation, the solution was replaced once every 2 days, and the culture was conducted for 21 to 28 day.
(§10) After 21 to 28 days since the inoculation of Caco-2 cells, the transmembrane resistance was measured.
(§11) Permeation experiment: after the transepithelial electrical resistance was measured, the buffer solution at the two sides was removed by suction, then added thereto the solution according to the following system.
(§12) According to the experimental conditions as shown in the following Table 15, the reaction solution in each experimental group was formulated: […]
(§13) Sample treatment: after 2-hours incubation, 50 μL of the permeation solution were sucked up from each side of side A and side B, and equivalent volume of cold acetonitrile was added to terminate the reaction, and the concentrations of the compound at the A and B sides were measured by LC-MS/MS. The apparent permeation (Papp) and the Efflux Ratio were calculated according to the following equations:
(§14) Efflux Ratio=Papp(BA)/Papp (AB)
(§15) wherein, dCr/dt is the integration of the concentration of the compound at the base side realted to time, Vr is the reaction volume at the base side, A is the area of a single layer of cells, being 0.33 cm^2, and C0 is the concentration of the compound at the top side.
For orientation: Caco-2 cells form a polarised layer with tight junctions and transporters.

A short description of data set [4]: Caco-2 permeation experiment. It counts as in vitro ADME. The following applies: human. As for the experimental part:
as §5, §6, §7, §8, §9, §10, §11, §12, §13, §14, §15

The nature of a further data set: Rat PK experiment. The class given is in vivo, Male rats. The conditions noted are these: male; for AUC(0-inf) / Cmax / half-life: rat blood plasma. As for the experimental part: Male rats were intravenously (iv) and intragastrically (po) administered the test compounds respectively, and LC-MS/MS was used to measure the blood plasma concentration of the compound in the bodies of the rat. The main pharmacokinetic parameters were calculated by utilizing WinNonlin 6.3 software.

Data set [5] is described as follows: Stability in liver microsomes, mouse. The class given is in vitro ADME. As for the experimental part:
as §1, §2, §3, §4

Where a name gives a salt, the structure may show the parent alone.

By efflux ratio is commonly meant the permeability from basolateral to apical divided by that in the opposite direction, in the common usage. Usually bioavailability stands for dose-corrected exposure relative to a reference, in per cent. Usually AUC(0-inf) stands for total exposure, with the tail of the curve extrapolated. Usually Cmax stands for the peak of the concentration-time curve. Regarding `CC1(C)Cc2cc(OC/C(=C/F)CN)ccc2C(=O)N1` [HC38-E, (E)-6-((2-(aminomethyl)-3-fluoroallyl)oxy)-3,3-dimethyl-3,4-dihydroisoquinolin-1(2H)-one hydrochloride], the “T1/2 in liver microsomes” value in data set [1] (Monkey), in data set [2] (Rat), in data set [3] (Dog) and in data set [5] (Mouse) was “long half-life” throughout. Besides, the half-life is 20.8 h in data set [1] (monkey, liver microsomes, read-out: T1/2 in liver microsomes); 14.2 h in data set [2] (rat, liver microsomes, read-out: T1/2 in liver microsomes); 118 h in data set [3] (dog, liver microsomes, read-out: T1/2 in liver microsomes); 1.43 ± 0.15 h in the data set “Rat PK experiment” (iv 3 mg/kg); 1.37 ± 0.01 h in “Rat PK experiment” (po 3 mg/kg); 13.8 h in data set [5] (mouse, liver microsomes, read-out: T1/2 in liver microsomes). In addition, in the data set with Caco-2 cells (120 min, pH 7.4), the “Average apparent permeability A to B” value is listed as “high permeability”. In addition, the Efflux ratio result in the data set with Caco-2 cells (Papp(BA)/Papp(AB)) is given as “low possibility of active efflux”. For the same compound, the Papp A→B at 120 min, 2 μM in data set [4] (Caco-2, 120 min, pH 7.4, read-out: Average apparent permeability A to B) came out at 2.6 ×10⁻⁶ cm/s. Further, in data set [4] (Caco-2, 120 min, pH 7.4, read-out: Average apparent permeability B to A), the Papp B→A at 120 min, 2 μM came to 3.26 ×10⁻⁶ cm/s. Also, in data set [4] (Caco-2, pH 7.4, Papp(BA)/Papp(AB)), the efflux ratio at 2 h, 2 μM came to 1.26. The compound further displayed a bioavailability in the data set “Rat PK experiment” (plasma, rat, po 3 mg/kg) of 89.9%. For the same compound, the AUC(0-inf) turned out to be 1160 ± 120 ng·h/mL in the data set “Rat PK experiment” (iv 3 mg/kg) and 1040 ± 129 ng·h/mL in the data set “Rat PK experiment” (po 3 mg/kg). The Cmax was 1040 ± 181 ng/mL in the data set “Rat PK experiment” (iv 3 mg/kg) and 343 ± 24 ng/mL in the data set “Rat PK experiment” (po 3 mg/kg).

The record behind these values is patent US20200087248A1, “Fluoroallylamine Derivative And Use Thereof” (SICHUAN KELUN-BIOTECH BIOPHARMACEUTICAL CO., LTD., priority 2017, published 2020).
